Key:
Echinochloa crus-galli = experiment: Herbicidal effect, foliar spray pot test in greenhouse (Example 102); type: in vivo; settings: sprayed at 2-3 leaf stage, a week after, scale 0-100
Method: (§1) A plastic pot was filled with a commercially-available culture soil, and thereto inubie (common barnyardgrass; Echinochloa crus-galli) or akinoenokorogusa (giant foxtail; Setaria faberi) was seeded, and covered with the soil to about 0.5 cm, followed by growing the weeds in a greenhouse. When the weeds grew to two to three leaf stage, a spray liquid of the compound X, a spray liquid of 2,4-D choline salt, or a spray liquid of the present composition was uniformly sprayed to the whole plants so that the application rate might be a predetermined value. The spray liquid of the present composition was prepared by mixing the spray liquid of the compound X with the spray liquid of 2,4-D choline salt. The spray liquid of the compound X was prepared by mixing a predetermined amount of the formulation X with deionized water. The spray liquid of 2,4-D choline salt was prepared by dissolving 2,4-D choline salt with a 2 wt % solution of TWEEN® 20 (polyoxyethylenesorbitan fatty acid ester, manufactured by MP Biomedicals) in dimethylformamide, followed by mixing with deionized water. After applying the spray liquid, the plants were placed in a greenhouse for a week. A herbicidal effect was evaluated by classifying the effect into 101 stages from 0 (no effect) to 100 (completely dead).
(§2) The expected value of the herbicidal effect in the case of mixed use was calculated from the result of the herbicidal effect in the case of single use of each of the compounds (the value of A or B) according to the formula of Colby ((expected value)=100−(100−A)×(100−B)/100).

Setaria faberi = experiment: as above; type: in vivo; settings: sprayed at 2-3 leaf stage, a week after, scale 0-100
Method: as §1, §2

[1] = 2,4-D choline salt 50 g/ha alone
[2] = 2,4-D choline salt 500 g/ha alone

C[N+](C)(C)CCO.O=C([O-])COc1ccc(Cl)cc1Cl [2,4-D choline salt]
Herbicidal effect on Echinochloa crus-galli (observed value) (Echinochloa crus-galli; [1]): 0
Herbicidal effect on Echinochloa crus-galli (observed value) (Echinochloa crus-galli; [2]): 10
Herbicidal effect on Setaria faberi (observed value) (Setaria faberi; [1]): 0
Herbicidal effect on Setaria faberi (observed value) (Setaria faberi; [2]): 10

CCOC(=O)COc1ncccc1Oc1cc(-n2c(=O)cc(C(F)(F)F)n(C)c2=O)c(F)cc1Cl [Compound X, ethyl [3-[2-chloro-4-fluoro-5-(1-methyl-6-trifluoromethyl-2,4-dioxo-1,2,3,4-tetrahydropyrimidin-3-yl)phenoxy]-2-pyridyloxy]acetate]
Herbicidal effect on Echinochloa crus-galli (observed value) (Echinochloa crus-galli; Compound X 5 g/ha alone): 20
Herbicidal effect on Echinochloa crus-galli (observed value) (Echinochloa crus-galli; Compound X 10 g/ha alone): 35
Herbicidal effect on Setaria faberi (observed value) (Setaria faberi; Compound X 5 g/ha alone): 30
Herbicidal effect on Setaria faberi (observed value) (Setaria faberi; Compound X 10 g/ha alone): 45
